Data: patent publication US8124655B2, “Use of LR-90 and LR-102 to overcome insulin resistance” (City of Hope, priority 2007, dated 2012)

Experiments:
[1] = test system: Zucker diabetic fatty (ZDF) rat; assay: Kidney histopathology: PAMS and Masson's trichrome staining; type: in vivo; conditions: kidney of ZDF rats, p<0.01 vs ZDF
From the text: Kidney sections were stained with periodic acid-Schiff-methenamine silver (PAMS) to evaluate glomerulosclerosis and mesangial matrix expansion; Masson's trichrome staining was used to analyse collagen deposition and cortical tubule degeneration. Glomerulosclerosis was defined as glomerular basement membrane thickening, mesangial hypertrophy and capillary occlusion, and was semiquantitatively evaluated on an arbitrary scale of 0 to 4: grade 0 (normal); grade 1 (sclerotic area less than 25%); grade 2 (sclerotic area 25-50%); grade 3 (sclerotic area 50-75%); and grade 4 (sclerotic area more than 75%). The glomerulosclerotic index was then calculated as described. Briefly, 100 glomeruli were randomly chosen from each rat kidney stained with PAMS and carefully scored for sclerosis by two blinded investigators. This was done in a sequential manner to ensure that the same glomerulus was not graded twice. To quantify for mesangial expansion and ECM accumulation in the mesangial areas, PAMS-positive materials in the mesangial region excluding cellular elements were analysed using an image analyser with a microscope (Olympus AX70; Olympus Optical, Hamburg, Germany) and photographed using a Retiga 2000R CCD camera (Qimaging, Surrey, BC, Canada). Twenty glomeruli, randomly selected from each rat were evaluated by two investigators without knowledge of the origin of the slides. The percentage of PAMS-positive area in each glomerulus was analysed using Image Pro Plus (Media Cybernetics, Silver Spring, Mass., USA). Results were expressed as percentage of areas positive for PAMS staining. To evaluate cortical tubule degeneration and collagen deposition, kidney sections were stained withMasson's trichrome. In each section, six fields of kidney cortex were randomly selected at 100× magnification using an Olympus AX70 microscope, photographed using a Retiga 2000R camera and the images analysed by Image Pro Plus. Blue and red colours indicate collagen and cytoplasm staining, respectively. Degenerate tubules in each field were identified by the absence of cytoplasm and results expressed as number of degenerate tubules per field. For quantitative measurement of collagen deposition, positively stained areas from six random regions in each slide were identified and scored by dividing the positively stained areas by the total tissue area in the same field using the colour separation function of Image Pro Plus. Results were expressed as percentage of area with positive staining.

[2] = test system: p38 MAPK, p44/42 MAPK, p65 subunit of NF-κB; assay: Renal MAPKs and NF-κB activation by western blot; type: in vivo, rat
Protocol: Renal cortical tissues were homogenised in PBS buffer with 1% (vol./vol.) Nonidet P-40, 0.5% (wt/vol.) sodium deoxycholate, 0.1% (wt/vol.) SDS and protease inhibitor mixture (Roche, Indianapolis, Ind., USA). Homogenates were centrifuged for 15 min at 4° C. and at 12,000 rpm and the supernatant fractions collected and stored at −70° C. Nuclear extracts were prepared as described previously. Protein concentrations were measured using the Bio-Rad DC Assay kit. Total RNA was isolated using the RNA-STAT-60 reagent (Tel-Test, Friendswood, Tex., USA). Western blot assay Protein samples (50 μg) were separated on 10 to 20% gradient Tris-glycine Criterion gels (Bio-Rad) and then transferred to nitrocellulose membranes. The membranes were blocked with 5% (wt/vol.) skimmed milk in PBS before incubation with anti-TGF-β1, anti-CTGF, anti-AGER, anti-phospho-p38 MAPK, anti-phospho-p44/42 MAPK and anti-p65 NF-κB antibodies. Immunoreactive proteins were detected by enhanced chemiluminescence (Western Lightning Chemiluminescence Reagent; Perkin-Elmer, Waltham, Mass., USA) using horseradish peroxidase-labelled secondary antibodies. Equal amounts of protein loading were confirmed by restaining the membranes with antibodies against β-actin, p38 MAPK or p44/42 MAPK for cytosolic extracts or with histone H2B for nuclear extracts. Band intensities were quantified using a densitometer (Quantity One, Bio-Rad). Reverse transcriptase-polymerase chain reaction Total RNA (1 μg) was used for the RT reaction using the GeneAmp RNA PCR kit (Applied Biosystems, Foster City, Calif., USA). Total cDNA was then used in PCR reactions containing gene specific primers [Electronic supplementary material (ESM) Table 1] paired with Quantum 18S rRNA internal standards (Ambion, Austin, Tex., USA). Multiplex PCR reactions were performed in a GeneAmp 9700 (Applied Biosystems). […] The densities of amplified products corresponding to specific genes and 18S rRNA were quantified with Quantity One software (Bio-Rad). Results are expressed as the means of the ratios of Tgfb1, Ctgf or Ager band densities to the 18S rRNA band density.

[3] = test system: Cybb, the gene encoding for the gp91phox subunit of NADPH; assay: Kidney expression of Cybb (data not shown); type: in vivo, rat; conditions: ZDF rats
[4] = test system: Zucker diabetic fatty rats (ZDF, fa/fa); assay: Pancreatic islet immunohistochemistry and PAMS staining (Example 2); type: in vivo, rat
From the text: FIG. 7. Immunohistochemical analysis and quantification of islet cells. ZDF GM fa/fa rats and lean control rats were fed with high fat diet for 30 weeks and received either nothing or LR-90 or LR-102 in their drinking water. Pancreatic sections from various groups of animals were stained with anti-insulin antibody or anti-glucagon antibody. A. Representative images with the overlay of the insulin (green) and glucagon (red staining). […] B. Insulin-positive β-cell-to-glucagon-ratio was also measured from these images.
FIG. 8. Periodic acid methenamine silver (PAMS) staining of pancreatic tissues. Sections from cryopreserved pancreas of each group of animals on the study were stained with PAMS and examined under light microscopy.
LR-90 at 50 mg/L of drinking water was given to a subgroup of ZDF rats after the rats developed spontaneous diabetes at 13 weeks of age. At 40 weeks of age, and before killing the animals, their weight was measured; HbA1c, plasma glucose, insulin, triglycerides, cholesterol, CRP and urinary albumin and creatinine concentrations were measured. After euthanizing all animals, organs such as the kidneys, eyeballs, liver, heart, aortae and pancreas were dissected and subjected to immunohistochemical staining, RT-PCR, Western blotting and microscopy.

3T3 adipocytes = assay: FFA uptake and glucose uptake in 3T3 adipocytes; type: cell-based; conditions: FIG. 14
From the text: FIG. 14. Effect of LR-90 on 3T3 adipocytes. Tissue culture data on 3T3 adipocytes, showing free fatty acid (FFA) uptake and glucose uptake improvements upon contact with LR-90.
The present Example, with reference to FIG. 14, provides tissue culture data on 3T3 adipocytes, showing free fatty acid (FFA) uptake and glucose uptake improvements upon contact with LR-90.

[5] = described in U.S. Pat. No. 6,787,566; cited from earlier work

Compound: CC(C)(Oc1ccc(NC(=O)Nc2ccc(Cc3ccc(NC(=O)Nc4ccc(OC(C)(C)C(=O)O)cc4)c(Cl)c3)cc2Cl)cc1)C(=O)O [LR-90, methylene bis[4,4′-(2-chlorophenylureidophenoxyisobutyric acid)]]
- quantitative scoring for PAMS staining ([1]; FIG. 1c): reduced significantly
- tubular degeneration ([1]; FIG. 1e): reduced significantly
- percentage positive collagen area staining ([1]; FIG. 1f): reduced significantly
- glomerulosclerosis index (GSI) ([1]; FIG. 1d): reduced significantly
- activation of NF-κB (p65 subunit) ([2]; kidney nuclear extracts of ZDF rats, p<0.01): significantly attenuated
- activation of p44/42 MAPK ([2]; renal cortex of ZDF rats, p<0.01): significantly attenuated
- activation of p38 MAPK ([2]; renal cortex of ZDF rats, p<0.05): significantly attenuated
- increased kidney expression of Cybb [3]: attenuated
- PAMS staining of pancreatic islets ([4]; FIG. 8): amelioration
- number of undamaged insulin-secreting islet cells in the pancreas ([4]; FIGS. 7 and 8): significantly higher number
- free fatty acid (FFA) uptake (3T3 adipocytes): improvements
- glucose uptake (3T3 adipocytes): improvements
- breaking AGE-protein cross-links [5]: active
